The source of these data is publication PMC7705960, “Discovery of a Beetroot Protease Inhibitor to Identify and Classify Plant-Derived Cystine Knot Peptides” (Journal of Natural Products, 2020).

“And” between values parts separate entries of the source, which are not always exact repeats. Equal entries are not always repeated. Where two headings read alike, the source gives them in different places. Positions of bridges follow the written chain, without caps; N, C: chain ends. Residues, ends and D or L forms follow the SMILES beside them.

In one assay the target is T1, human POP (Homo sapiens, UniProt P48147).
T1 construct: The full-length cDNA was cloned into the BamHI and EcoRI cloning sites of the commercially available expression plasmid pGEX-6P1; GST (from pGEX-6P1) (N, cleaved yes); made in house; host or cells: E. coli BL21
T1 sequence (P48147 1-710): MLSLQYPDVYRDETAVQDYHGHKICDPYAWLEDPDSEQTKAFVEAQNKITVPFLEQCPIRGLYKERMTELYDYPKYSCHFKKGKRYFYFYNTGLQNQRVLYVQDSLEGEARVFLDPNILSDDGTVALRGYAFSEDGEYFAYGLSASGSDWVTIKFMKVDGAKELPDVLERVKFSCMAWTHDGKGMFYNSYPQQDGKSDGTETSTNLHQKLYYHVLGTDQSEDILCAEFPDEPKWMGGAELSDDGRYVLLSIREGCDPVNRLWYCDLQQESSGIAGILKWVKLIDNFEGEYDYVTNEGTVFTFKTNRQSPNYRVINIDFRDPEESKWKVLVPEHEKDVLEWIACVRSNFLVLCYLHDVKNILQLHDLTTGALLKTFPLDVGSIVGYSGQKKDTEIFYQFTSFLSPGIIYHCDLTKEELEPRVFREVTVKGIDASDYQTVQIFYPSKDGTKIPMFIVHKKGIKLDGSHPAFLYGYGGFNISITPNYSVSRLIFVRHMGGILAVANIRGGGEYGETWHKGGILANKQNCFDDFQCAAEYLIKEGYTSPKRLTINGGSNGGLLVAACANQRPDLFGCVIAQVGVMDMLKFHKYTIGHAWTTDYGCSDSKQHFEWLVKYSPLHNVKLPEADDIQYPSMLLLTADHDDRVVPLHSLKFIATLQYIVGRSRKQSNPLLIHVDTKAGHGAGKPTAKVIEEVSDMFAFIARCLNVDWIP
Description: Prolyl oligopeptidase (POP) inhibition assay (fluorescence, Z-Gly-Pro-AMC). Particulars: synthetic bevuTI-I; recombinant human POP 50 ng, Z-Gly-Pro-AMC 45 μM, 20 mM HEPES pH 7.4, 150 mM NaCl, 1 mM EDTA, 0.5 mM DTT, ex 360/em 450 nm; mean ± SD of three biological replicates. The format is biochemical. The source says:
As it was previously reported, plant cystine knot peptides belonging to the cyclotide family have the ability to inhibit human prolyl endopeptidase.[33] Thus, we were interested whether the bevuTI-I was also able to inhibit this enzyme. Like psysol-2, bevuTI-I has three proline residues and presumably the same cysteine connectivity.
Recombinant human POP (NM_002726.4) was produced in E. coli BL21 (New England Biolabs, MA, USA). The full-length cDNA was cloned into the BamHI and EcoRI cloning sites of the commercially available expression plasmid pGEX-6P1 by a customized manufacturer service from GenScript (Leiden, The Netherlands). […] The protein concentration of the eluate was determined by the bicinchoninic acid assay (ThermoFisher Scientific), and aliquots of stock protease in storage buffer (including 20% glycerol) were kept at −80 °C. […] Enzyme activity was measured by fluorescence signal as a result of free fluorophore from the Z-Gly-Pro-AMC substrate with an excitation of 360 ± 20 nm and emission of 450 ± 20 nm. Kinetic inhibition data were recorded in 5 min intervals, and the amount of inhibition was calculated from the steepness of the linear initial velocity. […] Concentration–response experiments were evaluated with a fitted nonlinear regression function in GraphPad Prism.

In another assay the target is T2, Bovine β-trypsin (Bos taurus, UniProt P00760).
T2 sequence (P00760 24-246): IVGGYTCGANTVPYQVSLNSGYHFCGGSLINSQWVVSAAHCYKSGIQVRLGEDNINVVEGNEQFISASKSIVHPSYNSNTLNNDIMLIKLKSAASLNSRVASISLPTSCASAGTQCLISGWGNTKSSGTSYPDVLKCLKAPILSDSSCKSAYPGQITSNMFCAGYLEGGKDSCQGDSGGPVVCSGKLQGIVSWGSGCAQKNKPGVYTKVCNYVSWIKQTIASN
Description: Trypsin inhibition assay (colorimetric, benzoylarginine-4-nitroanilide). The format is biochemical. The protocol: Based on the classification of bevuTI-I as putative trypsin inhibitor of the M. jalapa trypsin inhibitor family, enzymatic inhibition assays were performed.[33] Bovine β-trypsin and bevuTI-I were used in a colorimetric trypsin inhibition assay to measure concentration-dependent inhibition.
The trypsin inhibition assay was performed in 96-well microtiter plates. To 140 μL of a 20 mM Tris-HCl buffer (pH 8.0) was added 20 μL of inhibitor (dissolved in buffer)/buffer (negative control). Afterward, 20 μL of bovine trypsin (0.125 mg/mL, Sigma-Aldrich) was added, and the plate was incubated for 10 min at 22 °C. A volume of 20 μL of benzoylarginine-4-nitroanilide hydroxychloride (Bachem, Bubendorf, Switzerland) dissolved in 20% DMSO at a concentration of 900 μM was added automatically with the dispenser of the Synergy H4 Hybrid reader (BioTek, VM, USA). The rate of enzymatic reaction with different concentrations of inhibitor was measured for 1 h every 5 min at a wavelength of 410 nm. For calculations, the linear portion of data, corresponding to the initial rate of reaction, was used. The highest rate was set to 100% activity. A nonlinear regression (log inhibitor vs normalized response) was performed with GraphPad Prism version 8.0.0 for Windows (GraphPad Software, CA, USA). The top and bottom parameters were set to 100% and 0%, respectively.

For the molecule `CC[C@H](C)[C@@H]1NC(=O)[C@H](CCCNC(=N)N)NC(=O)[C@H](CC(C)C)NC(=O)[C@H](Cc2c[nH]c3ccccc23)NC(=O)[C@H](CCC(N)=O)NC(=O)[C@H](Cc2c[nH]cn2)NC(=O)[C@@H]2CCCN2C(=O)[C@H](C(C)C)NC(=O)[C@@H]2CSSC[C@@H]3NC(=O)[C@H]([C@@H](C)CC)NC(=O)[C@H]([C@@H](C)O)NC(=O)CNC(=O)[C@H](CO)NC(=O)[C@@H]4CCCN4C(=O)[C@H]([C@@H](C)O)NC(=O)[C@@H](N)CSSC[C@H](NC(=O)[C@H](CSSC[C@@H](C(=O)N[C@@H](C)C(=O)O)NC(=O)[C@H](C(C)C)NC(=O)[C@H](Cc4ccccc4)NC1=O)NC(=O)[C@H](CCC(N)=O)NC(=O)[C@H](CCC(=O)O)NC(=O)[C@@H]1CCCN1C(=O)[C@H](C)NC(=O)[C@H](CCC(=O)O)NC(=O)[C@@H]1CCCN1C(=O)[C@H](CO)NC3=O)C(=O)N[C@@H](CO)C(=O)N[C@@H](CC(N)=O)C(=O)N[C@@H](CO)C(=O)N2` [bevuTI-I, Beta vulgaris trypsin inhibitor I] (H-CTPSGTICSPEAPEQCCSNSCVPHQWLRIFVCA-OH; disulfide 1-17, 8-21, 16-32), the 50% inhibitory concentration (IC50) – broadly, the concentration at which inhibition is half-maximal – is 11000 ± 5300 nM on human POP; 471 nM and 568 nM on Bovine β-trypsin.

B1: Kunitz-type soybean trypsin inhibitor: well-characterized Kunitz-type soybean trypsin inhibitor, used as control (protein, UniProt P01070 25-205, looked up)
Trypsin inhibitor A: DFVLDNEGNPLENGGTYYILSDITAFGGIRAAPTGNERCPLTVVQSRNELDKGIGTIISSPYRIRFIAEGHPLSLKFDSFAVIMLCVGIPTEWSVVEDLPEGPAVKIGENKDAMDGWFRLERVSDDEFNNYKLVFCPQQAEDDKCGDIGISIDHDDGTRRLVVSKNKPLVVQFQKLDKESL
Turning to B1, the concentration for half-maximal inhibition (IC50) with Bovine β-trypsin (control inhibitor (Glycine max Kunitz-type), bovine trypsin, 20 mM Tris-HCl pH 8.0, 10 min pre-incubation at 22 °C, 410 nm, read-out: IC50, trypsin inhibition) came out at 198 ± 72 nM.
